Experimental data taken from the NIST ThermoML archive (doi:10.1021/je200811n).

Conditions: Hot wire method

C=C(F)C(F)(F)F [2,3,3,3-tetrafluoro-1-propene]
Conditions	thermal conductivity [W/m/K]
332.05 K, 300 kPa, Gas	0.01662
332.05 K, 1511 kPa, Gas	0.01807
332.06 K, 821 kPa, Gas	0.01681
332.12 K, 1388 kPa, Gas	0.01774
332.13 K, 627 kPa, Gas	0.01673
332.19 K, 1235 kPa, Gas	0.01737
332.21 K, 465 kPa, Gas	0.01667
332.27 K, 1074 kPa, Gas	0.01714
332.3 K, 974 kPa, Gas	0.01699
332.31 K, 299 kPa, Gas	0.01673
332.33 K, 1511 kPa, Gas	0.01806
332.36 K, 820 kPa, Gas	0.01686
332.38 K, 202 kPa, Gas	0.0168
332.41 K, 1386 kPa, Gas	0.01772
332.46 K, 626 kPa, Gas	0.01677
332.48 K, 1233 kPa, Gas	0.01739
332.55 K, 102 kPa, Gas	0.01703
332.56 K, 463 kPa, Gas	0.01674
332.58 K, 1073 kPa, Gas	0.01716
332.62 K, 973 kPa, Gas	0.01704
332.62 K, 1511 kPa, Gas	0.01806
332.67 K, 299 kPa, Gas	0.01675
332.69 K, 819 kPa, Gas	0.0169
332.71 K, 1385 kPa, Gas	0.0177
332.75 K, 202 kPa, Gas	0.01687
332.81 K, 626 kPa, Gas	0.01677
332.81 K, 1233 kPa, Gas	0.01741
332.91 K, 1072 kPa, Gas	0.01718
332.91 K, 1511 kPa, Gas	0.01803
332.92 K, 461 kPa, Gas	0.01677
332.95 K, 101 kPa, Gas	0.01705
332.96 K, 972 kPa, Gas	0.01706
333.04 K, 299 kPa, Gas	0.01681
333.04 K, 1384 kPa, Gas	0.0177
333.05 K, 818 kPa, Gas	0.01692
333.14 K, 1232 kPa, Gas	0.01741
333.15 K, 202 kPa, Gas	0.01686
333.18 K, 625 kPa, Gas	0.01682
333.26 K, 1071 kPa, Gas	0.0172
333.3 K, 460 kPa, Gas	0.01681
333.31 K, 972 kPa, Gas	0.01708
333.38 K, 101 kPa, Gas	0.01705
333.41 K, 817 kPa, Gas	0.01696
333.45 K, 300 kPa, Gas	0.01686
333.56 K, 624 kPa, Gas	0.01687
333.57 K, 202 kPa, Gas	0.01692
333.69 K, 460 kPa, Gas	0.01685
333.83 K, 102 kPa, Gas	0.0171
333.87 K, 300 kPa, Gas	0.01688
334.02 K, 202 kPa, Gas	0.01695
334.31 K, 102 kPa, Gas	0.01716
341.28 K, 102 kPa, Gas	0.01759
341.35 K, 201 kPa, Gas	0.01779
341.39 K, 303 kPa, Gas	0.01795
341.45 K, 17165 kPa, Liquid	0.0645
341.49 K, 102 kPa, Gas	0.01745
341.52 K, 12122 kPa, Liquid	0.06134
341.52 K, 21726 kPa, Liquid	0.06742
341.55 K, 17165 kPa, Liquid	0.06461
341.56 K, 200 kPa, Gas	0.01761
341.6 K, 303 kPa, Gas	0.01775
341.6 K, 8202 kPa, Liquid	0.05839
341.61 K, 21724 kPa, Liquid	0.06756
341.62 K, 12120 kPa, Liquid	0.06114
341.69 K, 5189 kPa, Liquid	0.05547
341.7 K, 8198 kPa, Liquid	0.05823
341.73 K, 103 kPa, Gas	0.01734
341.77 K, 2101 kPa, Liquid	0.05131
341.79 K, 200 kPa, Gas	0.0175
341.8 K, 5187 kPa, Liquid	0.05524
341.8 K, 17162 kPa, Liquid	0.0647
341.82 K, 302 kPa, Gas	0.01766
341.85 K, 21720 kPa, Liquid	0.06741
341.88 K, 12117 kPa, Liquid	0.06141
341.89 K, 2100 kPa, Liquid	0.05083
341.92 K, 17160 kPa, Liquid	0.06488
341.96 K, 103 kPa, Gas	0.01726
341.96 K, 21718 kPa, Liquid	0.06759
341.98 K, 8198 kPa, Liquid	0.05827
342.01 K, 12114 kPa, Liquid	0.06141
342.02 K, 199 kPa, Gas	0.01743
342.03 K, 1842 kPa, Gas	0.01945
342.03 K, 1904 kPa, Gas	0.01996
342.04 K, 1737 kPa, Gas	0.0191
342.05 K, 302 kPa, Gas	0.01758
342.07 K, 1574 kPa, Gas	0.01854
342.08 K, 5185 kPa, Liquid	0.0553
342.11 K, 8197 kPa, Liquid	0.05815
342.16 K, 1405 kPa, Gas	0.01818
342.17 K, 951 kPa, Gas	0.01775
342.18 K, 17158 kPa, Liquid	0.06504
342.19 K, 814 kPa, Gas	0.0177
342.19 K, 2098 kPa, Liquid	0.05099
342.21 K, 103 kPa, Gas	0.01718
342.22 K, 5183 kPa, Liquid	0.05512
342.22 K, 21716 kPa, Liquid	0.0677
342.26 K, 605 kPa, Gas	0.01764
342.27 K, 199 kPa, Gas	0.01735
342.27 K, 1842 kPa, Gas	0.01963
342.27 K, 1904 kPa, Gas	0.01971
342.28 K, 12111 kPa, Liquid	0.06144
342.29 K, 302 kPa, Gas	0.0175
342.29 K, 1736 kPa, Gas	0.01924
342.29 K, 1903 kPa, Gas	0.01966
342.32 K, 459 kPa, Gas	0.01763
342.32 K, 17157 kPa, Liquid	0.06503
342.34 K, 1573 kPa, Gas	0.01875
342.34 K, 2096 kPa, Liquid	0.05065
342.36 K, 21715 kPa, Liquid	0.06785
342.4 K, 8195 kPa, Liquid	0.05822
342.43 K, 1404 kPa, Gas	0.01834
342.44 K, 12112 kPa, Liquid	0.06137
342.47 K, 949 kPa, Gas	0.01781
342.47 K, 1242 kPa, Gas	0.01809
342.5 K, 813 kPa, Gas	0.01767
342.5 K, 1096 kPa, Gas	0.01796
342.51 K, 1904 kPa, Gas	0.01989
342.52 K, 1841 kPa, Gas	0.01962
342.52 K, 1904 kPa, Gas	0.01982
342.52 K, 5181 kPa, Liquid	0.05511
342.54 K, 939 kPa, Gas	0.01779
342.55 K, 1735 kPa, Gas	0.01923
342.56 K, 303 kPa, Gas	0.01766
342.56 K, 8193 kPa, Liquid	0.05802
342.6 K, 17155 kPa, Liquid	0.06501
342.61 K, 1572 kPa, Gas	0.01878
342.63 K, 201 kPa, Gas	0.01782
342.63 K, 21712 kPa, Liquid	0.06777
342.66 K, 458 kPa, Gas	0.01768
342.66 K, 2094 kPa, Liquid	0.05079
342.69 K, 5181 kPa, Liquid	0.05482
342.72 K, 1403 kPa, Gas	0.01842
342.73 K, 12110 kPa, Liquid	0.06135
342.75 K, 102 kPa, Gas	0.01803
342.77 K, 1903 kPa, Gas	0.01985
342.77 K, 17154 kPa, Liquid	0.06488
342.78 K, 1241 kPa, Gas	0.01818
342.78 K, 1841 kPa, Gas	0.01962
342.79 K, 948 kPa, Gas	0.01785
342.79 K, 1904 kPa, Gas	0.01984
342.79 K, 21708 kPa, Liquid	0.06775
342.82 K, 1095 kPa, Gas	0.01798
342.83 K, 812 kPa, Gas	0.01775
342.83 K, 1734 kPa, Gas	0.01925
342.86 K, 939 kPa, Gas	0.01784
342.86 K, 8191 kPa, Liquid	0.05808
342.89 K, 1571 kPa, Gas	0.01877
342.9 K, 12107 kPa, Liquid	0.06122
342.91 K, 302 kPa, Gas	0.01773
343.01 K, 201 kPa, Gas	0.01784
343.01 K, 5178 kPa, Liquid	0.05499
343.02 K, 458 kPa, Gas	0.0177
343.03 K, 1402 kPa, Gas	0.01843
343.03 K, 1903 kPa, Gas	0.01984
343.05 K, 8190 kPa, Liquid	0.05781
343.05 K, 17151 kPa, Liquid	0.06493
343.06 K, 1840 kPa, Gas	0.01962
343.06 K, 1904 kPa, Gas	0.01984
343.06 K, 21708 kPa, Liquid	0.06763
343.1 K, 1240 kPa, Gas	0.01819
343.12 K, 946 kPa, Gas	0.01784
343.12 K, 1733 kPa, Gas	0.0192
343.14 K, 1094 kPa, Gas	0.01802
343.15 K, 102 kPa, Gas	0.01805
343.17 K, 2093 kPa, Liquid	0.05051
343.19 K, 810 kPa, Gas	0.0178
343.2 K, 938 kPa, Gas	0.0179
343.2 K, 12105 kPa, Liquid	0.06126
343.21 K, 1570 kPa, Gas	0.01879
343.21 K, 5176 kPa, Liquid	0.05461
343.25 K, 17149 kPa, Liquid	0.06474
343.25 K, 21706 kPa, Liquid	0.06757
343.29 K, 302 kPa, Gas	0.01776
343.29 K, 606 kPa, Gas	0.01775
343.35 K, 1401 kPa, Gas	0.01847
343.36 K, 8188 kPa, Liquid	0.05795
343.39 K, 2092 kPa, Liquid	0.05007
343.4 K, 200 kPa, Gas	0.01785
343.41 K, 459 kPa, Gas	0.01776
343.41 K, 12104 kPa, Liquid	0.06108
343.43 K, 1239 kPa, Gas	0.01822
343.48 K, 945 kPa, Gas	0.01791
343.49 K, 1093 kPa, Gas	0.01807
343.53 K, 5176 kPa, Liquid	0.05477
343.55 K, 809 kPa, Gas	0.01783
343.55 K, 937 kPa, Gas	0.01797
343.56 K, 102 kPa, Gas	0.01807
343.58 K, 8186 kPa, Liquid	0.0576
343.68 K, 606 kPa, Gas	0.0178
343.69 K, 302 kPa, Gas	0.01781
343.72 K, 2091 kPa, Liquid	0.05023
343.77 K, 5174 kPa, Liquid	0.05432
343.8 K, 200 kPa, Gas	0.0179
343.8 K, 459 kPa, Gas	0.0178
343.99 K, 2090 kPa, Liquid	0.05015
344 K, 103 kPa, Gas	0.01811
344.09 K, 302 kPa, Gas	0.01783
344.23 K, 199 kPa, Gas	0.01797
344.46 K, 103 kPa, Gas	0.01816

Liquid
Conditions	thermal conductivity [W/m/K]
333.15 K	0.05329
343.15 K	0.05091
